Measurements reported in US6114334A, “Piperazine derivatives as therapeutic agents” (Knoll Aktiengesellschaft, priority 1995, dated 2000).
Where a name gives a salt, the structure may show the parent alone. Read-outs that look alike come from different tables or passages of the source.

What was measured:
5-HT1A receptors = target: T1, 5-HT1A receptors (Rattus norvegicus, UniProt P19327); experiment: inhibition of [3H]8-OH-DPAT binding to 5-HT1A receptors in vitro; parameters: species or system rat (male Sprague-Dawley, hippocampal tissue); conditions: for inhibition at 1 µM: read-out: % displacement at 10^-6 M, 5-HT1A; for Ki: [3H]8-OH-DPAT 2 nM, 25° C., 30 min
T1 sequence (P19327 1-422): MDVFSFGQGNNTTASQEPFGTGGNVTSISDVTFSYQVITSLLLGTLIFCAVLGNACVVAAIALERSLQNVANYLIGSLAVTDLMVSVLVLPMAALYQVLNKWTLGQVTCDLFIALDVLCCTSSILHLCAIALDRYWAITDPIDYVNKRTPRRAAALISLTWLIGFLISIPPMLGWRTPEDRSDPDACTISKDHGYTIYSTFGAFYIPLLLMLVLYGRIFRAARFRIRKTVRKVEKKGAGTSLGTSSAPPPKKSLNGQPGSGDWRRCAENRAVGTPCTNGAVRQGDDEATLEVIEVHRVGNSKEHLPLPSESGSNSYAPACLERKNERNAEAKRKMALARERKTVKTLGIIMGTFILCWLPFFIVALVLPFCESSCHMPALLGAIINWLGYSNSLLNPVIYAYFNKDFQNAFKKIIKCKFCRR

α2D-adrenoceptors = target: T2, α2D-adrenoceptors (Rattus norvegicus, UniProt P22909); experiment: inhibition of tritiated idazoxan binding to α2D-adrenoceptors in vitro; parameters: species or system rat (male Charles River CD, frontal cortical tissue); conditions: rat frontal cortex; for inhibition at 1 µM: 10^-6 M, [3H]idazoxan, read-out: % displacement at 10^-6 M, α2D; for Ki: [3H]idazoxan 1 nM, 0° C., 75 min
T2 sequence (P22909 1-465): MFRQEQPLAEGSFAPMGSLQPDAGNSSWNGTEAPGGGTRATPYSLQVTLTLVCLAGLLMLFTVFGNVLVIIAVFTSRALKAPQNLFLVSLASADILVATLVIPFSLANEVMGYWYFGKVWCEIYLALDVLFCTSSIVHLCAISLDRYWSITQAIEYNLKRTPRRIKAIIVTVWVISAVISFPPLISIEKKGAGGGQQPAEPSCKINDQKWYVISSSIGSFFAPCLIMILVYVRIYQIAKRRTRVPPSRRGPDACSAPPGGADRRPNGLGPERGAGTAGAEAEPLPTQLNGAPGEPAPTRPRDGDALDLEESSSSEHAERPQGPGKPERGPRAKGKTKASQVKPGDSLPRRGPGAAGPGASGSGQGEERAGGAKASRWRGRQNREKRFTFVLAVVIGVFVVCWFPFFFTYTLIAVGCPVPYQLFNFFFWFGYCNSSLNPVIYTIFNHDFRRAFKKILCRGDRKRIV

α1-adrenoceptors = experiment: inhibition of 7-methoxy-[3H]prazosin binding to α1-adrenoceptors in vitro; parameters: species or system rat (male Charles River CD, whole cortical tissue); conditions: rat whole cortex, 30 min; for Ki: 7-methoxy-[3H]prazosin 0.1 nM, 30° C.; for % displacement at 10^-6 M, α1: 7-methoxy-[3H]prazosin, 1 µM
Procedure: Whole cortical tissue from the brains of male Charles River CD rats weighing between 150-250 g were homogenised in ice-cold 50 mM Tris-HCl, pH 7.6 (at 25° C.; 1:40 w/v) and centrifuged at 1000 g at 4° C. for 10 minutes. The supernatant was centrifuged at 30,000 g at 4° C. for 10 minutes. The pellet was rehomogenised in 50 mM Tris-HCl, pH 7.6 (1:40 w/v) and centrifuged at 30,000 g at 4° C. for 10 minutes. The final pellet was resuspended in 50 mM Tris-HCl, pH 7.6 (equivalent to 12.5 mg wet weight of tissue/ml) and used immediately in the binding assay. Aliquots (400 μl; equivalent to 5 mg wet weight of tissue/tube) of this suspension were added to tubes containing the ligand (50 μl; 0.1 nM) and distilled water (50 μl; total binding) or phentolamine (50 μl; 5 μM; non-specific binding) or test compound (50 μl; at a single concentration of 10^-6 M or at 10 concentrations ranging from 10^-11 -10^-3 M). The ligand was 7-methoxy-[^3 H]prazosin and the mixture was incubated at 30° C. for 30 minutes before the incubation was terminated by rapid filtration. The filters were washed with ice-cold Tris-HCl buffer and dried. The filters were punched out into vials, scintillation fluid added and radioactivity determined by liquid scintillation counting. The percentage displacement of specific binding of the tritiated ligand was calculated for the single concentration (10^-6 M) of test compound. […] The concentration which gave 50% inhibition of specific binding (IC50) was obtained from the curve. The inhibition coefficient Ki was then calculated using the formula [formula] in which [ligand] is the concentration of the tritiated ligand used and KD is the equilibrium dissociation constant for the ligand.

D2 dopamine receptors = D2 dopamine receptors (Rattus norvegicus, UniProt P61169); experiment: inhibition of tritiated (S)-sulpiride binding to D2 dopamine receptors in vitro; parameters: species or system rat (male Charles River CD, striatal tissue); conditions: rat striatum, tritiated (S)-sulpiride 1 nM, 4° C., 40 min
[1] = 10^-6 M, rat hippocampus, [3H]8-OH-DPAT

D2 dopamine receptors, sequence (P61169 whole entry): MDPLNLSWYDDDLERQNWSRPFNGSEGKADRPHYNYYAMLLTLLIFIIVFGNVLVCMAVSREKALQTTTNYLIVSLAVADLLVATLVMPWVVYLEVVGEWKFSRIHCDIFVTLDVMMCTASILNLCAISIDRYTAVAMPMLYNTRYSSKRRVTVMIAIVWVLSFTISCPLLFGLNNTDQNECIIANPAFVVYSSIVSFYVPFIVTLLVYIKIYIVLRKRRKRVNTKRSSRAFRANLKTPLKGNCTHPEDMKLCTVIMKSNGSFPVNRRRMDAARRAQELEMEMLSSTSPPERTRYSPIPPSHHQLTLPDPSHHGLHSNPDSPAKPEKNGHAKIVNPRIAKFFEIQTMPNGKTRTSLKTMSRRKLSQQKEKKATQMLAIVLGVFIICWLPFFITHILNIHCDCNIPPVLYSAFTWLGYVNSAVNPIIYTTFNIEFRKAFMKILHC

SMILES	inhibition at 1 µM (5-HT1A receptors; [1]) [%]	inhibition at 1 µM (α2D-adrenoceptors) [%]	Ki (α1-adrenoceptors) [nM]	Ki (D2 dopamine receptors) [nM]	% displacement at 10^-6 M, α1 (α1-adrenoceptors) [%]	Ki (α2D-adrenoceptors) [nM]	inhibition at 1 µM (5-HT1A receptors) [%]	Ki (5-HT1A receptors; rat hippocampus) [nM]
C=CCn1c(-c2cccnc2)nn(CN2CCN(c3cccc(C)c3C)CC2)c1=S [Example 61, 4-Allyl-2-[4-(2,3-dimethylphenyl)piperazin-1-ylmethyl]-5-(3-pyridyl)-1,2,4-triazole-3(2H,4H)-thione]	52	52	> 500	> 500	–	–	–	–
C=CCn1c(-c2ccc(Cl)cc2)nn(CN2CCN(c3ccccc3OC)CC2)c1=S [Example 62, 4-Allyl-5-(4-chlorophenyl)-2-[4-(2-methoxyphenyl)piperazin-1-ylmethyl]-1,2,4-triazole-3(2H,4H)-thione]	77	68	–	201	59	–	–	–
C=CCn1c(-c2cccnc2)nn(CN2CCN(c3ccccc3OC)CC2)c1=O [Example 63, 4-Allyl-2-[4-(2-methoxyphenyl)piperazin-1-ylmethyl]-5-(3-pyridyl)-1,2,4-triazol-3(2H,4H)-one]	74	66	> 500	193	–	–	–	–
C=CCn1c(-c2cccnc2)nn(CCCCN2CCN(c3cccc(C)c3C)CC2)c1=O [Example 64, 4-Allyl-2-{4-[4-(2,3-dimethylphenyl)piperazin-1-yl]butyl}-5-(3-pyridyl)-1,2,4-triazol-3(2H,4H)-one 1.5 maleate]	90	84	–	93	98	–	–	–
C=CCn1c(-c2cccnc2)nn(CCN2CCN(c3cccc(C)c3C)CC2)c1=O [Example 65, 4-Allyl-2-{2-[4-(2,3-dimethylphenyl)piperazin-1-yl]ethyl}-5-(3-pyridyl)-1,2,4-triazol-3(2H,4H)-one 2.8 hydrochloride]	63	–	–	> 500	56	> 500	–	–
C=CCn1c(-c2ccccc2)nn(CCCCN2CCN(c3ccccc3OC)CC2)c1=O.Cl.Cl [Example 66, 4-Allyl-2-{4-[4-(2-methoxyphenyl)piperazin-1-yl]butyl}-5-phenyl-1,2,4-triazol-3(2H,4H)-one dihydrochloride]	–	–	–	169	99	> 500	92	–
C=CCn1c(-c2cccnc2)nn(CCN2CCN(c3ccccc3OC)CC2)c1=O.Cl.Cl [Example 67, 4-Allyl-2-{2-[4-(2-methoxyphenyl)piperazin-1-yl]ethyl}-5-(3-pyridyl)-1,2,4-triazol-3(2H,4H)-one dihydrochloride]	–	–	–	> 500	78	> 500	52	–
C=CCn1c(-c2ccccc2)nn(CCN2CCN(c3ccccc3OC)CC2)c1=O.O=C(O)/C=C/C(=O)O [Example 68, 4-Allyl-2-{2-[4-(2-methoxyphenyl)piperazin-1-yl]ethyl}-5-phenyl-1,2,4-triazol-3(2H,4H)-one monofumarate]	56	–	–	> 500	67	> 500	–	–
C=CCn1c(-c2cccs2)nn(CCN2CCN(c3ccccc3OC)CC2)c1=O [Example 69, 4-Allyl-2-{2-[4-(2-methoxyphenyl)piperazin-1-yl]ethyl}-5-(2-thienyl)-1,2,4-triazol-3(2H,4H)-one]	70	–	–	> 500	93	> 500	–	–
C=CCn1c(C)nn(CCN2CCN(c3ccccc3OC)CC2)c1=O [Example 70, 4-Allyl-2-{2-[4-(2-methoxyphenyl)piperazin-1-yl]ethyl}-5-methyl-1,2,4-triazol-3(2H,4H)-one]	69	–	–	310	64	> 500	–	–
C=CCn1c(-c2cccnc2)nn(CCN2CCN(c3ccccc3C)CC2)c1=O [Example 71, 4-Allyl-2-{2-[4-(2-methylphenyl)piperazin-1-yl]ethyl}-5-(3-pyridyl)-1,2,4-triazol-3(2H,4H)-one]	–	–	–	> 500	56	> 500	–	> 500
C=CCn1c(-c2cccnc2)nn(CCCN2CCN(c3ccccc3OC)CC2)c1=O.Cl.Cl.Cl [Example 72, 4-Allyl-2-{3-[4-(2-methoxyphenyl)piperazin-1-yl]propyl}-5-(3-pyridyl)-1,2,4-triazol-3(2H,4H)-one trihydrochloride]	–	–	–	> 500	91	> 500	–	> 500
